In US20070287703A1, “Fused Pyrimidones Useful in the Treatment and the Prevention of Cancer” (AstraZeneca AB, priority 2004, published 2007):

Biological target: T1, recombinant HsEg5 motor domain (amino acids 1-369-8His) (Homo sapiens, UniProt P52732)
T1 construct: recombinant HsEg5 motor domain (amino acids 1-369-8His); 8His (C)
T1 sequence (P52732 1-369): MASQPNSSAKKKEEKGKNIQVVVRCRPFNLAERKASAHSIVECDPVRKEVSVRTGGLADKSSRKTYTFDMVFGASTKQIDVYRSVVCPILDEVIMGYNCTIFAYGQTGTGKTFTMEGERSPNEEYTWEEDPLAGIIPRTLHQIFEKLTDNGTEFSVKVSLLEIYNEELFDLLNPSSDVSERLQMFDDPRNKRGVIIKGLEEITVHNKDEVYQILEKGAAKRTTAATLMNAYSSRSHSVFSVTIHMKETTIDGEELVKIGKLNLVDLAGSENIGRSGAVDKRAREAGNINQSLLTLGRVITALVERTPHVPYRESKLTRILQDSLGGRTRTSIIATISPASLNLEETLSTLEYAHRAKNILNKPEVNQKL
Experiment: Malachite Green Assay of Eg5 motor ATPase activity
Format: biochemical
Settings: 6 nM enzyme, 300 μM ATP, 908 nM polymerized tubulin, 20 min pre-incubation, 20 min reaction at room temperature
Description: Enzymatic activity of the Eg5 motor and effects of inhibitors was measured using a malachite green assay, which measures phosphate liberated from ATP, and has been used previously to measure the activity of kinesin motors (Hackney D D, and Jiang W, Assays for kinesin microtubule-stimulated ATPase activity; Methods in Molecular Biology vol 164:65-71 (2001)). Enzyme was recombinant HsEg5 motor domain (amino acids 1-369-8His) and was added at a final concentration of 6 nM to 100 μl reactions. […]
5 μl of compound diluted in 12% DMSO was added to the wells of 96 well plates. […] The reactions were then quenched by the addition of 150 μl malachite green/ammonium molybdate reagent, and absorbance read at 650 nanometers exactly 5 min after quench using a Spectramax Plus plate reader (Molecular Devices). Data was graphed and IC50s calculated using ExCel Fit (Microsoft).

## CCC(c1nc2n(c(=O)c1Cc1ccccc1)CCCS2)N(CCCN)C(=O)c1ccc(OC)cc1 (stereo not shown) [Example 4, 3,4-Dihydro-6-oxo-7-benzyl-8-{1-[N-(4-methoxybenzoyl)-N-(3-aminopropyl)amino]propyl}-2H,6H-pyrimido[2,1-b][1,3]thiazine]
  IC50: 331 nM
